Assay results: patent US20030130249A1, “Therapeutic use of estrogen receptor (ER)beta-selective agonists for triggering somatotropic, organotropic and anticatabolic effects (somatotropic therapy)” (Schering AG, priority 2001, published 2003)

What was measured:
Type in all cases: in vivo, rat
[1] = tested on: gonads of male and female, sexually immature rats; assay: Effects on gonads and prostate of sexually immature rats (FIG. 3)
Experimental: ERβ-selective properties can be studied in the case of female and male rats that are not sexually mature. […] In the case of a parenteral dose of 1 μg/animal/day, estradiol results in a complete inhibition of testicular growth. […] The action on the somatotropic functions, gonad functions and the genital tract was studied in infant, gonad-intact, male and female rats. Effects of ERβ-agon or ERβ-selective agonists (agon) (E2) on gonads of male and female, sexually immature rats in comparison to estradiol. Treatment of the young animals after weaning over 7 days (day 1-day 7, autopsy day 8, subcutaneous injection).

[2] = tested on: uterus of adult rats that have undergone ovariectomies; assay: Uterotropic action in adult ovariectomized rats (FIG. 1); settings: for dose giving increase in uterus weight ("standard" estrogenic activity): treatment day 1-day 3, autopsy day 4
Experimental: The substances that are to be used according to the invention have very little action in terms of “standard estrogens.” Corresponding estrogenic properties can be examined in the rats that have undergone ovariectomy. In the case of parenteral administration, 17β-estradiol even at a dose of 0.1 μg results in an increase in uterus weight. […] These substances have a correspondingly small action on the parameters of hepatic estrogeneity, for example the increase of the angiotensinogen in the blood. To examine the action of the ERβ-selective agonists in the context according to the invention, their estrogenic action on the genital tract, liver functions, somatotropic factors and on the secretion of gonadotropins was examined in comparison to estradiol in adult rats that have undergone ovariectomies. Determination of the uterotropic action of an ERα- or ERβ-selective agonist (agon) in comparison to estradnol (E2) Study of adult rats that have undergone ovariectomies 14 days after the ovariectomies, treatment day 1-day 3, autopsy day 4, subcutaneous administration in 0.2 ml of vehicle.

[3] = tested on: adrenal glands and thymus of sexually immature rats with intact ovaries; assay: Organ weights of adrenal glands and thymus of sexually immature rats (FIG. 6); settings: 7 days subcutaneous
Description: Effects of ERα- or ERβ-selective agonists (agon) on the development of the organ weights of the adrenal glands and the thymus of sexually immature rats with intact ovaries in comparison to estradiol (E2). Treatment of young animals after weaning over 7 days (day 1-day, 7, autopsy day 8, subcutaneous injection).

[4] = tested on: cholesterol fractions in the plasma from sexually immature rats with intact ovaries; assay: Cholesterol fractions in the plasma of sexually immature rats (FIG. 5); settings: 7 days subcutaneous
Description: (§1) Effects of ERα- or ERβ-selective agonists (agon) on the cholesterol fractions in the plasma from sexually immature rats with intact ovaries in comparison to estradiol (E2). Treatment of the young animals after weaning over 7 days (day 1-day 7, autopsy day 8, subcutaneous injection) in two tests with different dose ranges.

[5] = tested on: body growth of sexually immature rats whose ovaries are intact; assay: Body growth of sexually immature rats (FIG. 7); settings: immature rats with intact ovaries, 7 days subcutaneous
Description: as §1, with “the body growth of” for “the cholesterol fractions in the plasma from”, “rats whose ovaries are” for “rats with”, “intact” for “intact ovaries”

[6] = tested on: IGF-I in the plasma from sexually immature rats with intact ovaries; assay: IGF-I in the plasma of sexually immature rats (FIG. 4); settings: 7 days subcutaneous, two tests with different dose ranges
Description: as §1, with “IGF-I” for “the cholesterol fractions”, “8;” for “8,”

[7] = Plasma levels after one-time oral or subcutaneous administration to ovariectomized rats, RIA (FIG. 8); settings: one-time oral 1.0 mg or subcutaneous graduated dosages
Experimental: Plasma levels of the ERβ-selective agonist after a one-time oral or parenteral (subcutaneous injection) administration to ovariectomized rats, determinations 0.5; 1; 3; 6; 24 hours after oral administration of 1.0 mg (left) or 1; 2; 4; 6; 24 hours after subcutaneous administration of graduated dosages. Immunological determination by means of LCMS-validated Radio Immuno Assay (RIA).

[8] = tested on: uterus and vagina of ovary-intact, sexually immature rats; assay: Effects on uterus and vagina in ovary-intact, sexually immature rats (FIG. 2); settings: 7 days subcutaneous
Description: The action on the somatotropic functions, gonad functions and the genital tract was studied in infant, gonad-intact, male and female rats. Effects of ERβ-agon or ERβ-selective agonists (agon) (E2) on the uterus and vagina in ovary-intact, sexually immature rats in comparison to estradiol. Treatment of the young animals after weaning over 7 days (day 1-day 7, autopsy day 8, subcutaneous injection) in two tests with different dose ranges.

SMILES	dose giving complete inhibition of testicular growth ([1]; parenteral) [μg/animal/day]	dose giving increase in uterus weight ("standard" estrogenic activity) ([2]; subcutaneous) [µg]	adrenal gland weight [3]	thymus weight [3]	thymus weight at higher dosages ([3]; higher dosages)	HDL-cholesterol fraction in the plasma at high doses ([4]; high doses)	total cholesterol in the plasma at high doses ([4]; high doses)	body growth (weight increase) at higher dosages ([5]; higher dosages)	induction of uterus growth ([2]; subcutaneous, compared with ERβ-agon)	IGF-I in the plasma [6]	HDL-cholesterol fraction in the plasma ([4]; broad dose range)	total cholesterol in the plasma ([4]; broad dose range)	oral bioavailability (plasma levels) [7]	growth of the prostate ([1]; 7 days subcutaneous)	testicular growth ([1]; 7 days subcutaneous, autopsy day 8)	testicular growth at high doses ([1]; high doses, 7 days subcutaneous)	body growth ([5]; two tests with different dose ranges)	dose relative to estradiol for comparable uterotropic effect ([2]; parenteral, versus 0.1 μg of E2) [fold]	weight development of the uterus and vagina ([8]; autopsy day 8)	effects on uterus and vagina weight compared with ERα-agon and E2 ([8]; lowest tested dose)
C[C@]12CC[C@@H]3c4ccc(O)cc4CC[C@H]3[C@@H]1CC[C@@H]2O [E2, estradiol, reference compound]	1	0.1	–	–	–	–	–	–	–	–	–	–	–	–	–	–	–	–	–	–
C[C@]12CC[C@@H]3c4ccc(O)cc4CC[C@H]3[C@@H]1C[C@H]1OC(=O)C[C@]12O [ERα-agon, 3,17β-dihydroxy-19-nor-17α-pregna-1,3,5(10)-triene-21,16α-lactone, reference compound]	–	–	less pronounced positive effects	less pronounced positive effects	reduction of the thymus weight	drop the HDL-cholesterol fraction	drop the HDL-cholesterol fraction and the total cholesterol	considerable reduction of the weight increase	induce uterus growth in the case of much lower dosage than the ERβ-agon	No comparable effects	–	–	–	–	–	–	–	–	–	–
C=C[C@@]12CCc3cc(O)ccc3[C@H]1CC[C@@]1(C)[C@H]2CC[C@@H]1O [ERβ-agon, 8β-vinyl-1,3,5(10)-estratriene-3,17β-diol]	–	100	increase of adrenal gland weight	increase of adrenal gland weight and thymus weight	–	–	–	–	–	Statistically significant increase of the IGF-I	increase of the HDL-cholesterol fraction	elevated plasma levels of the total cholesterol	orally readily bioavailable	acceleration of the growth of the prostate	stimulates testicular growth beyond the normal size, which is statistically significant	inhibition of the testicular growth	accelerated growth of the animals via a broad dose range	1000	considerable effects on the weight development of the uterus and vagina in extremely low dosages	exceed those of ERα-agon, and E2 is statistically significant
